Measured values taken from US10717716B2, “1,3,4-oxadiazole derivative compounds as histone deacetylase 6 inhibitor, and the pharmaceutical composition comprising the same” (Chong Kun Dang Pharmaceutical Corp., priority 2015, dated 2020).

Key:
[1] = molecular target: T1, human recombinant HDAC6 (Homo sapiens, UniProt Q9UBN7); experiment: HDAC6 enzyme activity inhibition assay (HDAC Fluorimetric Drug Discovery Kit); format: biochemical; settings: for HDAC6 selectivity (fold): HDAC6 over HDAC1; for IC50: human recombinant HDAC6, same protocol as HDAC1, read-out: HDAC6
T1 construct: purchased Calbiochem 382180
T1 sequence (Q9UBN7 1-1215): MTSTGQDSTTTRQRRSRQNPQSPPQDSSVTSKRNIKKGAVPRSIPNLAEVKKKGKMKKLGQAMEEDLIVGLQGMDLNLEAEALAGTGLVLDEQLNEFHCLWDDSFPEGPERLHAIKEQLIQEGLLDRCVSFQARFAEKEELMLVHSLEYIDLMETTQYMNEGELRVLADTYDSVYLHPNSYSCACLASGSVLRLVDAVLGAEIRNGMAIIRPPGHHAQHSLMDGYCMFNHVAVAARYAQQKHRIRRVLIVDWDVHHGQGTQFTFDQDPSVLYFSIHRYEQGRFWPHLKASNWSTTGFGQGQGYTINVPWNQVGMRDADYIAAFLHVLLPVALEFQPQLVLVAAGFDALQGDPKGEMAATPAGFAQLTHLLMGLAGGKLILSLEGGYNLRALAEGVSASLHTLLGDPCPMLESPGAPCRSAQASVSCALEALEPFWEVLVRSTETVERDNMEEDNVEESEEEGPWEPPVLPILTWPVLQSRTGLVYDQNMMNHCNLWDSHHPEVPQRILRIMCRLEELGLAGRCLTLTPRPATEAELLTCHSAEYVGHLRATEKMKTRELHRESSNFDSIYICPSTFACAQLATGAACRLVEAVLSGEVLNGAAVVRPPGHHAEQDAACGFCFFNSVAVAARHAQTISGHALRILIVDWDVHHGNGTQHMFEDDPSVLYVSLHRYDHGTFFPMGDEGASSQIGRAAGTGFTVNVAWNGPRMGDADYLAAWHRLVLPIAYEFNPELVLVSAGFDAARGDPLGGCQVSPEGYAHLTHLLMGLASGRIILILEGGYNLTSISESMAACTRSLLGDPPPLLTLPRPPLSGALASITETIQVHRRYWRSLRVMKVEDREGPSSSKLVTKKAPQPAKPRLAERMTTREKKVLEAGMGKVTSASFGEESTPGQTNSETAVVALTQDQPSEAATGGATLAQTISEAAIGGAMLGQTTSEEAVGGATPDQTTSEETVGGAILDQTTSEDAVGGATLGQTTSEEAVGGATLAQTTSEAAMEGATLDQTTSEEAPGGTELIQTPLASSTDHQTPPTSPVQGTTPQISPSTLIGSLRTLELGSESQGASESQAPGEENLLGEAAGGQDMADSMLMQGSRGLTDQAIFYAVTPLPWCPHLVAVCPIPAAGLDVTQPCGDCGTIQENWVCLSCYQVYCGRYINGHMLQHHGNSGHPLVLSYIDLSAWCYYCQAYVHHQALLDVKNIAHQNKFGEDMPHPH
In short: (§1)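 Fluorimetric deacetylase assay: 5-fold serial compound dilutions, 0.3 μg recombinant human enzyme (HDAC1 or HDAC6, same protocol), 10 μM Fluor de Lys-SIRT1 substrate, 60 min at 30 °C. Signal developed 30 min, measured at 360/460 nm; IC50 values derived.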

[2] = molecular target: T2, human recombinant HDAC1 (Homo sapiens, UniProt Q13547); experiment: HDAC1 enzyme activity inhibition assay (HDAC Fluorimetric Drug Discovery Kit); format: biochemical; settings: human recombinant HDAC1, Fluor de Lys substrate 10 μM, 30° C. 60 minutes
T2 construct: purchased Enzo Life Science BML-SE456
In short: as §1

T2 sequence (Q13547 whole entry): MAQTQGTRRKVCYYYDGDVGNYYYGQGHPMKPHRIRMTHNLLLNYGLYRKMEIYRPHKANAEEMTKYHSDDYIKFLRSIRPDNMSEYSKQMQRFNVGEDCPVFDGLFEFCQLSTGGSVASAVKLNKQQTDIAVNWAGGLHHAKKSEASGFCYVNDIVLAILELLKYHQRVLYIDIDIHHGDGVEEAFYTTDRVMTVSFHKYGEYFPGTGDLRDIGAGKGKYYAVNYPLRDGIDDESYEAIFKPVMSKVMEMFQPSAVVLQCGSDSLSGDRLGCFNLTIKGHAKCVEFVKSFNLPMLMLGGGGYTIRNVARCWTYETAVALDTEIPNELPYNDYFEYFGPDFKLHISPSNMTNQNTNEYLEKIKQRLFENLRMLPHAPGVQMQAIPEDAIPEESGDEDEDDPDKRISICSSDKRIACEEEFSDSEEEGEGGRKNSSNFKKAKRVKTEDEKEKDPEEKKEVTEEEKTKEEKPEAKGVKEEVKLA

| HDAC6 selectivity (fold) [1] [fold] | IC50 [1] [µM] | IC50 [2] [µM] | Compound |
| --- | --- | --- | --- |
| 46 | 0.255 | 11.7 | CCN1CCN(C(=O)N(Cc2ccc(-c3nnc(C(F)(F)F)o3)cn2)c2ccc(OC)cc2)CC1 [Compound 21876, 4-Ethyl-N-(4-methoxyphenyl)-N-((5-(5-(trifluoromethyl)-1,3,4-oxadiazol-2-yl)pyridin-2-yl)methyl)piperazine-1-carboxamide] |
| 1424 | 0.046 | 65 | CCN1CCN(C(=O)N(Cc2ccc(-c3nnc(C(F)F)o3)cc2)c2cccc(Cl)c2)CC1 [Compound 21877, N-(3-Chlorophenyl)-N-(4-(5-(difluoromethyl)-1,3,4-oxadiazol-2-yl)benzyl)-4-ethylpiperazine-1-carboxamide] |
| 522 | 0.041 | 21.5 | CCN1CCN(C(=O)N(Cc2ccc(-c3nnc(C(F)F)o3)cc2F)c2cccc(Cl)c2)CC1 [Compound 21878, N-(3-Chlorophenyl)-N-(4-(5-(difluoromethyl)-1,3,4-oxadiazol-2-yl)-2-fluorobenzyl)-4-ethylpiperazine-1-carboxamide] |
| 1064 | 0.026 | 27.9 | CCN1CCN(C(=O)N(Cc2ccc(-c3nnc(C(F)F)o3)cn2)c2cccc(Cl)c2)CC1 [Compound 21879, N-(3-Chlorophenyl)-N-((5-(5-(difluoromethyl)-1,3,4-oxadiazol-2-yl)pyridin-2-yl)methyl)-4-ethylpiperazine-1-carboxamide] |
| 467 | 0.095 | 44.4 | CCN1CCN(C(=O)N(Cc2ccc(-c3nnc(C(F)F)o3)cc2)c2ccc(Cl)cc2)CC1 [Compound 21880, N-(4-Chlorophenyl)-N-(4-(5-(difluoromethyl)-1,3,4-oxadiazol-2-yl)benzyl)-4-ethylpiperazine-1-carboxamide] |
| 548 | 0.089 | 48.7 | CCN1CCN(C(=O)N(Cc2ccc(-c3nnc(C(F)F)o3)cc2)c2ccc(OC)cc2)CC1 [Compound 21892, N-(4-(5-(Difluoromethyl)-1,3,4-oxadiazol-2-yl)benzyl)-4-ethyl-N-(4-methoxyphenyl)piperazine-1-carboxamide] |
| 640 | 0.059 | 37.6 | CCN1CCN(C(=O)N(Cc2ccc(-c3nnc(C(F)F)o3)cc2F)c2ccc(OC)cc2)CC1 [Compound 21893, N-(4-(5-(Difluoromethyl)-1,3,4-oxadiazol-2-yl)-2-fluorobenzyl)-4-ethyl-N-(4-methoxyphenyl)piperazine-1-carboxamide] |
| 1588 | 0.048 | 76.3 | CCN1CCN(C(=O)N(Cc2ccc(-c3nnc(C(F)F)o3)cn2)c2ccc(OC)cc2)CC1 [Compound 21894, N-((5-(5-(Difluoromethyl)-1,3,4-oxadiazol-2-yl)pyridin-2-yl)methyl)-4-ethyl-N-(4-methoxyphenyl)piperazine-1-carboxamide] |
| 82 | 0.346 | 28.5 | O=C(N1CCS(=O)(=O)CC1)N(Cc1ccc(-c2nnc(C(F)F)o2)cc1F)c1ccc(CN2CCN(C3COC3)CC2)cc1 [Compound 21896, N-(4-(5-(difluoromethyl)-1,3,4-oxadiazol-2-yl)-2-fluorobenzyl)-N-(4-((4-(oxetan-3-yl)piperazin-1-yl)methyl)phenyl)thiomorpholine-4-carboxamide 1,1-dioxide] |
| 140 | 0.487 | 68.1 | CC(C)(C)CN1CCN(Cc2ccc(N(Cc3ccc(-c4nnc(C(F)(F)F)o4)cc3F)C(=O)N3CCS(=O)(=O)CC3)cc2)CC1 [Compound 21897, N-(2-fluoro-4-(5-(trifluoromethyl)-1,3,4-oxadiazol-2-yl)benzyl)-N-(4-((4-neopentylpiperazin-1-yl)methyl)phenyl)thiomorpholine-4-carboxamide 1,1-dioxide] |
